Reference: patent US20100075960A1 (priority 2006, published 2010)

Key:
Assay type in all cases: cell-based
[1] = tested on: HCT116; assay: Inhibition of cell proliferation, HCT116; conditions: Homo sapiens, HCT-116; 72 h treatment; methylene blue or CellTiter-Glo
[2] = tested on: HT29; assay: Inhibition of cell proliferation, HT29; conditions: Homo sapiens, HT-29; Colon; 72 h; methylene blue or CellTiter-Glo
Method: (§1) II. Inhibition of Cell Proliferation by PLK1 Inhibitors.
(§2) Exponentially growing cell lines of different tumor origins, cultured in appropriate media containing 10% fetal bovine serum at 37° C. in a 5% CO2 incubator were plated in 96 or 384-well plates. Twenty four hours post-plating, cells were treated with different concentrations of test compounds ranging from 20 μM to 0.04 nM. Several wells were left untreated as a control. Seventy two hours post-treatment, cell numbers were determined using different techniques; 100 μl per well of methylene blue (Sigma M9140) (0.5% in 50:50 Ethanol:water), or 10-100 μl per well of CellTiter-Glo (Promega #G7573), depending on well size. For methylene blue staining, stain was incubated at room temperature for 30 minutes before plates were rinsed and dye solubilized in 1% N-lauroyl sarcosine, sodium salt, (Sigma L5125, in PBS). Plates were read on a microplate reader, measuring the OD at 620 nm. For CellTiter-Glo, plates were incubated at room temperature for 15 minutes and the chemiluminescent signal was read on the Victor V or Envison 2100 reader.
(§3) Percent inhibition of cell growth was expressed as percent proliferation relative to 100% proliferation (control). Concentration of test compound that inhibited 50% of cell growth (IC50) was determined by 4 parameter fit of data using XLfit, (value of no cell control was substracted from all samples for background). The data are shown in Table 1 and Table 2 below and represent a compilation of several different experiments each performed using the general parameters outlined above, although minor variations may have been employed in some instances, in Table 1 and Table 2, +=IC50>1 μM; ++=IC50 0.5-1 μM: +++=IC50<0.5 μM.

[3] = tested on: MX-1; assay: Inhibition of cell proliferation, MX-1; conditions: Homo sapiens, MX1; Breast; 72 h; methylene blue or CellTiter-Glo
Method: as §1, §2, §3

[4] = tested on: SKOV-3; assay: Inhibition of cell proliferation, SKOV-3; conditions: Homo sapiens, SK-OV-3; Ovarian; 72 h; methylene blue or CellTiter-Glo
Method: as §1, §2, §3

[5] = tested on: LNCaP; assay: Inhibition of cell proliferation, LNCaP; conditions: Homo sapiens, Prostate, 72 h, methylene blue or CellTiter-Glo
Method: as §1, §2
(§4) Percent inhibition of cell growth was expressed as percent proliferation relative to 100% proliferation (control). […]

[6] = tested on: P388; assay: Inhibition of cell proliferation, P388; conditions: Mouse leukemia, 72 h, methylene blue or CellTiter-Glo
Method: as §1, §2, §3

[7] = tested on: H1299; assay: Inhibition of cell proliferation, H1299; conditions: Homo sapiens, NCI-H1299; Lung; 72 h; methylene blue or CellTiter-Glo
Method: as §1, §2, §4

[8] = tested on: HN5; assay: Inhibition of cell proliferation, HN5; conditions: 72 h
Method: as §1, §2, §3

[9] = tested on: MCF7; assay: Inhibition of cell proliferation, MCF7; conditions: Homo sapiens, Breast, 72 h, methylene blue or CellTiter-Glo
Method: as §1, §2, §4

[10] = tested on: MV522; assay: Inhibition of cell proliferation, MV522; conditions: Lung, 72 h, methylene blue or CellTiter-Glo
Method: as §1, §2, §4

[11] = tested on: MDA-MB-468; assay: Inhibition of cell proliferation, MDA-MB-468; conditions: Homo sapiens, Breast, 72 h, methylene blue or CellTiter-Glo
Method: as §1, §2, §4

[12] = tested on: PANC-1; assay: Inhibition of cell proliferation, PANC-1; conditions: Homo sapiens, pancreatic, 72 h, methylene blue or CellTiter-Glo
Method: as §1, §2, §4

[13] = tested on: Saos-2; assay: Inhibition of cell proliferation, Saos-2; conditions: Homo sapiens, bone, 72 h, methylene blue or CellTiter-Glo
Method: as §1, §2, §4

[14] = tested on: U87-MG; assay: Inhibition of cell proliferation, U87-MG; conditions: Homo sapiens, U-87 MG; brain; 72 h; methylene blue or CellTiter-Glo
Method: as §1, §2, §4

[15] = tested on: HCC1954; assay: Inhibition of cell proliferation, HCC1954; conditions: Homo sapiens, breast, 72 h, methylene blue or CellTiter-Glo
Method: as §1, §2, §4

[16] = tested on: HCT-15; assay: Inhibition of cell proliferation, HCT-15; conditions: Homo sapiens, colon, 72 h, methylene blue or CellTiter-Glo
Method: as §1, §2, §4

[17] = tested on: HT-1080; assay: Inhibition of cell proliferation, HT-1080; conditions: Homo sapiens, connective tissue, 72 h, methylene blue or CellTiter-Glo
Method: as §1, §2, §4

[18] = tested on: A498; assay: Inhibition of cell proliferation, A498; conditions: Homo sapiens, kidney, 72 h, methylene blue or CellTiter-Glo
Method: as §1, §2, §4

[19] = tested on: SW156; assay: Inhibition of cell proliferation, SW156; conditions: kidney; 72 h; methylene blue or CellTiter-Glo
Method: as §1, §2, §4

[20] = tested on: Calu1; assay: Inhibition of cell proliferation, Calu1; conditions: Homo sapiens, Calu-1; lung; 72 h; methylene blue or CellTiter-Glo
Method: as §1, §2, §4

[21] = tested on: Capan-2; assay: Inhibition of cell proliferation, Capan-2; conditions: Homo sapiens, pancreas, 72 h, methylene blue or CellTiter-Glo
Method: as §1, §2, §4

[22] = tested on: BC-1; assay: Inhibition of cell proliferation, BC-1; conditions: Homo sapiens, BC1; peripheral blood; 72 h; methylene blue or CellTiter-Glo
Method: as §1, §2, §4

[23] = tested on: BDCM; assay: Inhibition of cell proliferation, BDCM; conditions: peripheral blood; 72 h; methylene blue or CellTiter-Glo
Method: as §1, §2, §4

[24] = tested on: A431; assay: Inhibition of cell proliferation, A431; conditions: Homo sapiens, A-431; skin; 72 h; methylene blue or CellTiter-Glo
Method: as §1, §2, §4

[25] = tested on: MALME-3M; assay: Inhibition of cell proliferation, MALME-3M; conditions: Homo sapiens, skin, derived from lung, 72 h, methylene blue or CellTiter-Glo
Method: as §1, §2, §4

IC50 [1]: < 500 nM
IC50 [2]: < 500 nM
IC50 [4]: < 500 nM
IC50 [5]: < 500 nM
IC50 [6]: < 500 nM
IC50 [7]: < 500 nM
IC50 [9]: < 500 nM
IC50 [11]: < 500 nM
IC50 [12]: < 500 nM
IC50 [14]: < 500 nM
IC50 [15]: < 500 nM
IC50 [16]: < 500 nM
IC50 [17]: < 500 nM
IC50 [19]: > 1000 nM
IC50 [20]: < 500 nM
IC50 [24]: < 500 nM
SMILES: C[C@@H](Oc1cc(-n2cnc3cc(-c4cnn(C)c4)ccc32)sc1C(N)=O)c1cccc(OC2CCN(C)CC2)c1Cl [Example 48]
IC50 [3]: < 500 nM
IC50 ([8]; Homo sapiens, Head and neck, Table 2 first HN5 line): < 500 nM
IC50 ([8]; head/neck, Table 2 second HN5 line): < 500 nM
IC50 [10]: < 500 nM
IC50 [13]: < 500 nM
IC50 [18]: < 500 nM
IC50 [21]: > 1000 nM
IC50 [22]: < 500 nM
IC50 [23]: < 500 nM
IC50 [25]: > 1000 nM
